# Where a name gives a salt, the structure may show the parent alone.
# Tests used:
# [1] = system: ileum shrinkage induced by histamine; assay: inhibitory effect of the test compounds on the ileum shrinkage induced by histamine; format: cell-based, guinea pigs; conditions: Cavia porcellus; test compound 10^-7 M; histamine 10^-5 M; isolated ileum, Magnus tank, Tyrode solution; read-out: Inhibition ratio against shrinkage by histamine
# Experimental: (§1) Ileum samples removed from guinea pigs were suspended isotonically in a Magnus tank containing a 95% O2 and 5% CO2 saturated Tyrode solution to determine inhibitory effect of the test compounds (10^-7 M) on the ileum shrinkage induced by histamine (10^-5 M) or leukotoriene (10^-8 M). The inhibitory ratio (%) was determined by the following formula. [formula]
# [2] = system: ileum shrinkage induced by leukotoriene; assay: inhibitory effect of the test compounds on the ileum shrinkage induced by leukotriene; format: cell-based, guinea pigs; conditions: Cavia porcellus; test compound 10^-7 M; leukotoriene 10^-8 M; isolated ileum, Magnus tank, Tyrode solution; read-out: Inhibition ratio against shrinkage by leukotriene
# Experimental: as §1
Structure (SMILES),inhibition at 0.1 µM [1] [%],inhibition at 0.1 µM [2] [%]
COc1cc(C(C)=O)ccc1OCCCN1CCC(OC(c2ccccc2)c2ccccc2)CC1 [Example 2],96,30
C=CCc1c(OCCCN2CCC(OC(c3ccccc3)c3ccccc3)CC2)ccc2c(C)cc(=O)oc12 [Example 7],67,51
COC(=O)c1ccc(OCCCN2CCC(OC(c3ccccc3)c3ccccc3)CC2)cc1 [Example 14],69,39
C=CCc1c(OCCCN2CCC(OC(c3ccc(Cl)cc3)c3ccccn3)CC2)ccc(C(C)=O)c1O (stereo not drawn) [Example 38],32,33
C=CCc1c(OCCCN2CCC(OC(c3ccccc3)c3ccccc3)CC2)ccc2c(=O)cc(C(=O)OCCCC)oc12 [Example 41],31,31
"CCCc1c(OCC(O)CN2CCC(OC(c3ccc(F)cc3)c3ccc(F)cc3)CC2)ccc(C(C)=O)c1O (stereo not drawn) [Example 44, 1-{(3-(4-acetyl-3-hydroxy-2-n-propylphenoxy)-2-hydroxy]propyl}-4-[bis(4-fluorophenyl)methoxy]piperidine fumarate]",43,35
CCCc1c(OCC(O)CN2CCC(OC(c3ccc(Cl)cc3)c3ccccn3)CC2)ccc(C(C)=O)c1O (stereo not drawn) [Example 45],40,30
C=CCc1c(OCC(O)CN2CCC(OC(c3ccc(Cl)cc3)c3ccccn3)CC2)ccc(C(C)=O)c1O (stereo not drawn) [Example 47],38,36
COC(=O)c1cc(=O)c2cc(C(C)C)cc(NC(=O)CCCN3CCC(OC(c4ccc(F)cc4)c4ccc(F)cc4)CC3)c2o1 [Example 60],58,37
